Source: patent US5298494A, “Monosaccharides having anti-proliferation and anti-inflammatory activity, compositions and uses thereof” (Greenwich Pharmaceuticals Incorporated, priority 1993, dated 1994)
Entries after “also recorded” stand apart in the source; their conditions may differ. Like-named read-outs stand apart in the source and are kept apart here.

Columns and labels:
[1] = test system: T cell proliferation in mouse spleen cell mixed lymphocyte cultures; experiment: Mixed Lymphocyte Reaction (MLR) assay; assay type: cell-based, mouse (Balb/c responder, C57B1/6 stimulator)
Description: The pharmacologic assays performed to determine the immunomodulatory effects of the experimental compounds in vitro include the Mixed Lymphocyte Reaction (MLR) and the ConA blastogenesis assay. These assays were used to determine the inhibitory effects of the compounds of the invention on T lymphocyte activation and proliferation. Since inflammation at the cellular level is characterized by T lymphocyte recruitment, activation and proliferation, these assays are appropriate to use as screens for novel compounds having therapeutic potential in the treatment of disorders in which inflammatory mechanisms are involved.
The MLR is a classical assay used to measure T cell function by studying the proliferative response of T cells which are activated in vitro by genetically disparate stimulator cells. This is accomplished by co-culturing spleen cells from two different strains of mice. Splenic T cell proliferation occurs as a result of cellular activation signals generated by the ongoing cellular interactions.
Balb/c mice were euthanised by cervical dislocation and their spleens removed. Single cell suspensions of the spleens were prepared in culture medium (hepes buffered RPMI-1640 supplemented with 10% fetal calf serum, 2mM glutamine, 500 units penicillin/ streptomycin, and 4×10^-5 M 2-mercaptoethanol) using a Teflon pestle. The cells were centrifuged at 1500 rpm and the pellets resuspended in ACT (0.15M tris, 0.14M ammonium chloride, pH 7.2) in order to lyse the red blood cells. After a 5 minute incubation in a 37 C. waterbath, the cells were resuspended in culture medium and counted. C57B1/6 spleen cells which were used as stimulator cells, were also prepared by this method. The stimulator cells were treated with 100 ug/ml of mitomycin c for 1 hour at 37 C. (to inhibit stimulatory cell proliferation) and were then washed 5 times in culture medium. The proliferative responses were measured by culturing 2.5×10^5 responder cells with 5×10^5 stimulatory cells in 96 well microtiter plates in the presence or absence of various doses of test compounds or vehicle (DMSO). Syngeneic control cultures using mitomycin c treated Balb/c spleen cells as stimulator cells were also run. All cultures were run in triplicate.
Solutions of compounds of the present invention in DMSO were prepared at a stock concentration of 120 Mm. Dilutions were made in culture medium to the following concentrations: 3, 10, 30, 100, and 300 uM. The vehicle (DMSO) was used as a negative control.
After incubation of for 5 days at 37 C. with 5% CO2, the amount of cell proliferation was measured by adding 20 ul of MTT (3-[4,5-dimethylthiazol-2-yl]-2,5diphenyl-tetrazolium bromide) (10 mg/ml in phosphate buffered saline) to each well. Plates were incubated for 4 hours at 37 C., after which 180 ul of 10% sodium dodecyl sulphate in phosphate buffered saline was added. After an overnight incubation, the optical density (OD) of each well was read on a Molecular Devices microplate reader at 570-650 nm. The results were determined by calculating the difference between the means of the allogeneic cultures and the means of the syngenic cultures for each test article concentration. Differences of the test article groups were compared to the control group and the percent change from the control was determined.

[2] = test system: T lymphocytes (normal mouse spleen cells) stimulated with ConA; experiment: Mouse Spleen Cell ConA Blastogenesis Assay; assay type: cell-based, mouse (C57Bl/6); conditions: for inhibition at 0.01 µg/mL / inhibition at 0.1 µg/mL / inhibition at 1 µg/mL / inhibition at 2.5 µg/mL / inhibition at 10 µg/mL / inhibition at 25 µg/mL / inhibition at 100 µg/mL / inhibition at 0.001 µg/mL: Mus musculus, T-lymphocyte
Description: It is well known that several plant lectins, when cultured in vitro with lymphocytes, stimulate cellular activation and proliferation. Concanavolin, (ConA) selectively stimulates the blastogenic response of T lymphocytes.
Six to 8 week old male C57Bl/6 mice were purchased from Harlan Sprague Dawley (Indianapolis, Ind.).
Spleens were removed and were homogenized to obtain a single cell suspension. Erythrocytes were lysed by hypotonic shock. Upon determination of the viability and concentration of the lymphoid cells, they were adjusted to 4×10^6 cells/ml in culture medium (RPMI-1640) supplemented with 10% fetal bovine serum; 100 ug/ml streptomycin; 100 U/ml penicillin, 0.2M hepes buffer; 5×10^-5 M 2-mercaptoethanol and 2 mM glutamine). seeded into microtiter plate wells at 2×10^5 cells/0.050 ml/well. To these cultures were added various doses of experimental compounds and ConA at a final concentration of 4 or 1 ug/ml. Control cultures consisted of cells, ConA and culture medium containing the vehicle, DMSO only. […] For the testing of the methyl 1,3-O-isopropylidene-6-O-n-heptyl-α-D-fructofuranoside compound indomethacin and NDGA were used as controls. All cultures were run in triplicate.
Solutions of compounds of the invention in DMSO were prepared and dilutions were made in culture medium. Assay concentrations were either: 1, 2.5, 10, 25, 100, 300 and 750 ug/ml or 0.001, 0.01, 0.1, 1, 2.5, 10, 25 and 100 ug/ml.
Cultures were incubated for 3 days at 37° C. in a humidified atmosphere of 5% of CO2 in air. For the last 18 hours of culture, 1 uCi of ^3 H-thymidine was also incubated in each well. The cells were precipitated by a multi-channel harvester. The amount of ^3 H-thymidine incorporated by the cultures, as a measure of cell proliferation, was measured in a liquid scintillation counter. The amount of radioactive incorporation is proportional to the amount of cellular proliferation in individual wells. The students T test was used to determine the significance of the difference between experimental and control values.

[3] = ConA 1 ug/ml, 0.01 ug/ml, read-out: % Change from Control (Table II)
[4] = ConA 1 ug/ml, compound 0.01 ug/ml, read-out: % change from control, ConA blastogenic response
[5] = ConA 1 ug/ml, compound 0.1 ug/ml, read-out: % change from control, ConA blastogenic response
[6] = ConA 1 ug/ml, compound 1 ug/ml, read-out: % change from control, ConA blastogenic response
[7] = ConA 1 ug/ml, compound 2.5 ug/ml, read-out: % change from control, ConA blastogenic response
[8] = ConA 1 ug/ml, compound 10 ug/ml, read-out: % change from control, ConA blastogenic response
[9] = ConA 1 ug/ml, compound 25 ug/ml, read-out: % change from control, ConA blastogenic response
[10] = ConA 1 ug/ml, compound 100 ug/ml, read-out: % change from control, ConA blastogenic response
[11] = ConA 4 ug/ml, 0.01 ug/ml, read-out: % Change from Control (Table II)
[12] = ConA 4 ug/ml, compound 0.01 ug/ml, read-out: % change from control, ConA blastogenic response
[13] = ConA 4 ug/ml, compound 0.1 ug/ml, read-out: % change from control, ConA blastogenic response
[14] = ConA 4 ug/ml, compound 1 ug/ml, read-out: % change from control, ConA blastogenic response
[15] = ConA 4 ug/ml, compound 2.5 ug/ml, read-out: % change from control, ConA blastogenic response
[16] = ConA 4 ug/ml, compound 10 ug/ml, read-out: % change from control, ConA blastogenic response
[17] = ConA 4 ug/ml, compound 25 ug/ml, read-out: % change from control, ConA blastogenic response
[18] = ConA 4 ug/ml, compound 100 ug/ml, read-out: % change from control, ConA blastogenic response

SMILES | inhibition at 0.01 µg/mL [2, 3] | inhibition at 0.01 µg/mL [2, 4] | inhibition at 0.1 µg/mL [2, 5] | inhibition at 1 µg/mL [2, 6] | inhibition at 2.5 µg/mL [2, 7] | inhibition at 10 µg/mL [2, 8] | inhibition at 25 µg/mL [2, 9] | inhibition at 100 µg/mL [2, 10] | inhibition at 0.01 µg/mL [2, 11] | inhibition at 0.01 µg/mL [2, 12] | inhibition at 0.1 µg/mL [2, 13] | inhibition at 1 µg/mL [2, 14] | inhibition at 2.5 µg/mL [2, 15] | inhibition at 10 µg/mL [2, 16] | inhibition at 25 µg/mL [2, 17] | inhibition at 100 µg/mL [2, 18] | other results
CCCCCCCCCCCCCCCOCC(O)C1OC2OC(C)(C)OC2C1O [IIId, 1,2-O-Isopropylidene-6-O-pentadecyl-α-D-glucofuranose] | – | – | – | – | – | – | – | – | – | – | – | – | – | – | – | – | Mean O.D. Allogenic ([1]; 3 um): 0.210 O.D.; Mean O.D. Syngeneic ([1]; 3 um): 0.138 O.D.; Mean O.D. Allogenic ([1]; 10 um): 0.197 O.D.; Mean O.D. Syngeneic ([1]; 10 um): 0.128 O.D.; Mean O.D. Allogenic ([1]; 30 um): 0.104 O.D.; Mean O.D. Syngeneic ([1]; 30 um): 0.032 O.D.; Mean O.D. Allogenic ([1]; 100 um): 0.021 O.D.; Mean O.D. Syngeneic ([1]; 100 um): 0.019 O.D.; Mean O.D. Allogenic ([1]; 300 um): 0.015 O.D.; inhibition at 3 µM ([1]; Mus musculus, Lymphocyte, 3 um, read-out: % Change From Control, MLR): 13%; inhibition at 10 µM ([1]; Mus musculus, Lymphocyte, 10 um, read-out: % Change From Control, MLR): 17%; inhibition at 30 µM ([1]; Mus musculus, Lymphocyte, 30 um, read-out: % Change From Control, MLR): 13%; inhibition at 100 µM ([1]; Mus musculus, Lymphocyte, 100 um, read-out: % Change From Control, MLR): 98%
CCCCCCCC(=O)OC[C@H]1O[C@@]2(OC)COC(C)(C)O[C@H]2[C@@H]1O [Ii, methyl 1,3-O-isopropylidene-6-O-octanoyl-α-D-fructofuranoside] | -11% | -7% | -21% | -52% | -62% | -13% | -41% | 27% | -28% | -37% | -28% | -17% | -22% | 1% | -7% | 47% | effect on ConA T lymphocyte proliferation in words [2]: less potent inhibitor of the mitogen induced T lymphocyte proliferative response; also recorded: significant inhibition observed at all dose levels on the 1 ug/ml ConA cultures
CCCCCCCC(=O)OC[C@H]1O[C@@]2(OC)COC(C)(C)O[C@H]2[C@@H]1OC(=O)CCCCCCC [Ij, methyl 1,3-O-isopropylidene-4,6-di-O-octanoyl-α-D-fructofuranoside] | 60% | 100% | 100% | 100% | 100% | 100% | 100% | 100% | 3% | -42% | 12% | -9% | 15% | 43% | 79% | 92% | –
CCCCCCCO[C@@H]1[C@@H](CO)O[C@@]2(CO)OC(C)(C)O[C@@H]12 [Ik, 2,3-O-isopropylidene-4-O-heptyl-β-D-fructofuranose] | – | -8% | 3% | 19% | 21% | 79% | 99% | 100% | – | -14% | 8% | 35% | 51% | 91% | 99% | 100% | Blastogenic response of normal spleen cells to Con-A ([2]; ConA 1 ug/ml, compound 0.001 ug/ml): 139.5 ± 4.0 × 10^-3 cpm; Blastogenic response of normal spleen cells to Con-A ([2]; ConA 1 ug/ml, compound 0.01 ug/ml): 146.4 ± 5.2 × 10^-3 cpm; Blastogenic response of normal spleen cells to Con-A ([2]; ConA 1 ug/ml, compound 0.1 ug/ml): 145 ± 6.9 × 10^-3 cpm; Blastogenic response of normal spleen cells to Con-A ([2]; ConA 1 ug/ml, compound 1 ug/ml): 119.1 ± 3.3 × 10^-3 cpm; Blastogenic response of normal spleen cells to Con-A ([2]; ConA 1 ug/ml, compound 2.5 ug/ml): 98.5 ± 7.0 × 10^-3 cpm; Blastogenic response of normal spleen cells to Con-A ([2]; ConA 1 ug/ml, compound 25 ug/ml): 1.4 ± 0.2 × 10^-3 cpm; Blastogenic response of normal spleen cells to Con-A ([2]; ConA 1 ug/ml, compound 100 ug/ml): 0.3 ± 0.1 × 10^-3 cpm; Blastogenic response of normal spleen cells to Con-A ([2]; ConA 4 ug/ml, compound 0.001 ug/ml): 167.1 ± 16.7 × 10^-3 cpm; Blastogenic response of normal spleen cells to Con-A ([2]; ConA 4 ug/ml, compound 0.01 ug/ml): 212.6 ± 16.3 × 10^-3 cpm; Blastogenic response of normal spleen cells to Con-A ([2]; ConA 4 ug/ml, compound 0.1 ug/ml): 183.6 ± 10.4 × 10^-3 cpm; Blastogenic response of normal spleen cells to Con-A ([2]; ConA 4 ug/ml, compound 1 ug/ml): 135.3 ± 10.8 × 10^-3 cpm; Blastogenic response of normal spleen cells to Con-A ([2]; ConA 4 ug/ml, compound 2.5 ug/ml): 90.4 ± 7.8 × 10^-3 cpm; Blastogenic response of normal spleen cells to Con-A ([2]; ConA 4 ug/ml, compound 10 ug/ml): 18.4 ± 0.2 × 10^-3 cpm; Blastogenic response of normal spleen cells to Con-A ([2]; ConA 4 ug/ml, compound 25 ug/ml): 2.5 ± 0.4 × 10^-3 cpm; Blastogenic response of normal spleen cells to Con-A ([2]; ConA 4 ug/ml, compound 100 ug/ml): 0.4 ± 0.1 × 10^-3 cpm; inhibition at 0.001 µg/mL ([2]; ConA 1 ug/ml, compound 0.001 ug/ml, read-out: % change from control, ConA blastogenic response): -11%; inhibition at 0.001 µg/mL ([2]; ConA 4 ug/ml, compound 0.001 ug/ml, read-out: % change from control, ConA blastogenic response): 8%
